Assay results as given in patent US20230364032A1, “USE OF 2-HOBA TO TREAT ATHEROSCLEROSIS” (Vanderbilt University, priority 2020, published 2023).
Entries after “also recorded” stand apart in the source; their conditions may differ.

Assays:
IsoLG = assay: IsoLG-HOBA adducts/metabolites in liver and heart (LC/MS); type: in vivo, mouse; details: for IsoLG-HOBA adducts in hearts and livers: Ldlr−/− mice after 16 weeks on a western diet
Experimental: To generate an internal standard for quantitation, 10 molar equivalents of the heavy isotope labeled 2-HOBA, [^2H4]2-HOBA, was reacted with synthetic IsoLG^69 overnight in 1 mM triethylammonium acetate buffer to form IsoLG-2-HOBA adducts, and the adducts separated from unreacted [^2H4]2-HOBA and IsoLG by solid phase extraction (Oasis HLB). The isolated reaction products of IsoLG-2-HOBA were scanned by mass spectrometer (Waters Xevo-TQ-Smicro triple quadrupole MS) operating in limited mass scanning mode to identify major products. Additionally, precursor scanning with the product ion set at m/z 111.1 was used to confirm that the detected products were [^2H4]2-HOBA adducts. […] Similar species were seen when IsoLG was reacted with non-labeled 2-HOBA and precursor scanning using product ion m/z 107.1 To identify potential 2-HOBA adducts in tissue of treated animals, the present inventors first generated a list of 18 probable IsoLG-HOBA species [pyrrole, lactam, hydroxylactam based on the in vitro reactions of IsoLG and 2-HOBA and then the anhydro-, dinor-, dinor/anhydro-, tetranor-, and keto-(from oxidation of hydroxyl group) metabolites of each of these three adducts based on previous metabolism studies with prostaglandins and isoprostanes]. The present inventors then analyzed liver homogenate from a 2-HOBA treated mouse using LC/MS with the mass spectrometer operating in positive ion precursor scanning mode and the product ion set to m/z 107.1 and collision energy at 20 eV and looked for the presence of any of these precursor ions. […] M2 m/z 440.3, which mass is consistent with the pyrrole adduct, and M3 m/z 454.3 which mass is consistent with the anhydro-hydroxylactam adduct or the keto-lactam adduct. When then sought to quantify the amount of the putative IsoLG-HOBA adducts in heart and liver samples as there was not sufficient aorta sample remaining from other analysis available to do this analysis.
For these experiments, liver or heart samples from Ldlr^−/− mice treated with 2-HOBA or 4-HOBA were homogenized in 0.5 M Tris buffer solution pH 7.5 containing mixture of antioxidants (pyridoxamine, indomethacin, BHT, TCEP). Total amount of protein in homogenate was determined for normalization. 1 pmol IsoLG-[^2H4]2-HOBA was then added to each homogenate sample as internal standard, the HOBA adducts extracted with ethyl acetate, dried, dissolved in solvent 1 (water with 0.1% acetic acid) and analyzed by LC/MS using Waters Xevo-TQ-Smicro triple quadrupole mass spectrometer operating in positive ion multiple reaction monitoring (MRM) mode, monitoring the following transitions: m/z 438.3→107.1@20 eV for M1; m/z 440→107.1@20 eV for M2; m/z 454→107.1@20 eV for M3; and m/z 476.3→111.1@20 eV for IsoLG-[^2H4]2-HOBA hydroxylactam. Desolvati on temperature: 500° C.; source temperature: 150° C.; capillary voltage: 5 kV, cone voltage: 5 V; cone gas flow 1 L/h; desolvation gas flow 1000 L/h. HPLC condition were as follows: Solvent 1: water with 0.1% acetic acid; Solvent 2, methanol with 0.1% acetic acid; column: Phenomenex Kinetex C8 50×2.1 mm 2.6 u 100 Å, flow rate: 0.4 mL/min; gradient: starting condition 10% B with gradient ramp to 100% B over 3.5 min, hold for 0.5 min, and return to starting conditions over 0.5 min. Abundance for each metabolite was calculated based on the ratio of peak height versus that of internal standard.

MDA = assay: HOBA-MDA adducts in macrophages incubated with ox-LDL (LC-MS/MS); type: cell-based, mouse; details: 24 h; for HOBA-MDA (propenal-HOBA) adducts in macrophages: macrophages treated with oxidized LDL, 2-HOBA versus 4-HOBA
Experimental: Peritoneal macrophages were isolated from C57BL/6J mice and incubated with 50 μg/mL ox-LDL, and treated with either 250 μm 2-HOBA or 4-HOBA (18A), or 5 μm of 2-HOBA or 4-HOBA (18B, 18C, 18D) for 24 h. Cell samples were collected and the HOBA-MDA adducts were measured using LC-MS/MS as described in supplemental methods. * p<0.05, One-way ANOVA with Bonferroni's post hoc test.
The scavenger-MDA adducts were extracted, (1) from homogenate of tissue (equivalent of 30 mg) or (2) from cells (1 ml), three times with 500 μl of ethyl acetate. The extract was dried down, resuspended in 100 μl of ACN-water (1:1, v/v with 0.1% formic acid), vortexed, and filtered through a 0.22 μm spin X column. The reactions were analyzed by LC-EST/MS/MS using the column a Phenomenex Kinetex column at a flow rate of 0.1 ml/min. The gradient consisted of Solvent A, water with 0.2% formic acid and solvent B, acetonitrile with 0.2% formic acid. The gradient was as follows: 0-2 min 99.9% A, 2-9 min 99.9-0.1% A, 9-12 min 99.9% B. The mass spectrometer was operated in the positive ion mode, and the spray voltage was maintained at 5,000 V. Nitrogen was used for the sheath gas and auxiliary gas at pressures of 30 and 5 arbitrary units, respectively. The optimized skimmer offset was set at 10, capillary temperature was 300° C., and the tube lens voltage was specific for each compound. SRM of specific transition ions for the precursor ions at m/z 178→107 (propenal-HOBA adduct).

Phospho-Akt (S473) = assay: Akt signaling in macrophages (phospho-Akt Western blot); type: cell-based, mouse; details: 250 μM, 1 hour; absence and presence of insulin; vehicle, 4-HOBA, 2-HOBA compared
Experimental: WT macrophages were treated with or without vehicle (water), 250 μM 4-HOBA or 2-HOBA for 1 hour, and then incubated with or without 100 nM insulin as indicated for 15 min. Phospho-Akt (S473) and GAPDH were detected by Western Blotting (19A). The band density was quantitated by ImageJ software (19B). Two independent experiments were performed.

[1] = previous in vitro studies; cited from earlier work
[2] = Ldlr−/− mice, Western diet 16 weeks, continuously treated, Mean ± SEM

| Structure (SMILES) | IsoLG-HOBA adducts in hearts and livers (IsoLG) | IsoLG-HOBA-M1 level, heart (IsoLG; [2]) | IsoLG-HOBA-M1 level, liver (IsoLG; [2]) | IsoLG-HOBA-M2 level, heart (IsoLG; [2]) | IsoLG-HOBA-M2 level, liver (IsoLG; [2]) | IsoLG-HOBA-M3 level, heart (IsoLG; [2]) | IsoLG-HOBA-M3 level, liver (IsoLG; [2]) | propenal-2-HOBA, DHP-MDA-2-HOBA and crosslinked MDA-2-HOBA adducts in cells (MDA; cells incubated with 5 μM, ox-LDL) | HOBA-MDA (propenal-HOBA) adducts in macrophages (MDA) | pAKT levels in macrophages (Phospho-Akt (S473)) | reactivity with lipid dicarbonyls / dicarbonyl scavenging [1] |
| --- | --- | --- | --- | --- | --- | --- | --- | --- | --- | --- | --- |
| NCc1ccccc1O [2-HOBA, 2-hydroxybenzylamine] | present | 0.74 ± 0.21 nmol/kg | 0.88 ± 0.14 nmol/kg | 0.57 ± 0.35 nmol/kg | 0.82 ± 0.12 nmol/kg | 0.24 ± 0.17 nmol/kg | 4.17 ± 1.85 nmol/kg | significant levels of propenal-2-HOBA were formed | increased; also recorded: readily detected; also recorded: formation of 2-HOBA-MDA adducts | no difference; also recorded: does not influence | rapidly reacts |
| NCc1ccc(O)cc1 [4-HOBA, 4-hydroxybenzylamine, reference compound] | nondetectable |  |  |  |  |  |  |  | undetectable | no difference | poor reactivity; also recorded: ineffective |
